11 compounds from ChEMBL document CHEMBL1201862, “PubChem BioAssay data set” (2004) can be followed below.

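Dose response: 5 concentrations. Exposure: 48 h. Format: 96-well plates. Endpoint: linear interpolation; highest concentration if not reached. Here, GI50 denotes the concentration required for 50% inhibition of growth.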 The source made the active and inactive calls. No stated cut-off is given here; in the data, active = GI50 up to about 1.1 µM and inactive = higher.

Test systems include 786-0; A498; HCC 2998; HL-60; HT-29; IGROV-1; LOX IMVI; MOLT-4; NCI-H23; NCI-H460; NCI-H522; NCI/ADR-RES; OVCAR-4; RXF 393; SN12C; SNB-19; U-251; UACC-62; NCI-H226.
Holding throughout (experiment): growth of human tumour cells (NCI), 48 h

Take `Cc1nc2nc3c(ncn3COCCO)c(O)n2c1C(c1ccccc1)(c1ccccc1)c1ccccc1`: the GI50 in the assay on 786-0 is 17.1 µM (inactive); in the assay on A498 it was 18.3 µM (inactive); in the assay with HCC 2998, 13.6 µM (inactive); with HL-60, 14.1 µM (inactive); with HT-29 it was 11.7 µM (inactive); in the assay with IGROV-1 it was 14 µM (inactive). In addition, the GI50 is 13.1 µM (inactive) with LOX IMVI; 8.2 µM (inactive) in the assay with MOLT-4; 4.63 µM (inactive) with NCI-H23; 15.2 µM (inactive) in the assay with NCI-H460; 12.6 µM (inactive) in the assay with NCI-H522; 1.55 µM (inactive) with NCI/ADR-RES. Also, the GI50 was 13.6 µM (inactive) in the assay on OVCAR-4; 12.8 µM (inactive) in the assay on RXF 393; 16.5 µM (inactive) with SN12C; 14.8 µM (inactive) in the assay with SNB-19; 14.1 µM (inactive) in the assay with U-251; 11.4 µM (inactive) with UACC-62.
Turning to `COc1cc(/C=C2\C[C@H]3[C@@H]4CC=C5C=C(N6CCCC6)CC[C@]5(C)[C@H]4CC[C@]3(C)C2=O)cc(OC)c1OC`, the GI50 in the assay on 786-0 was 2.84 µM (inactive); in the assay with A498, 8.79 µM (inactive); in the assay with HCC 2998 it was 1.93 µM (inactive); with HL-60, 1.13 µM (inactive); in the assay with HT-29 it was 2.95 µM (inactive); in the assay on IGROV-1 it was 1.79 µM (inactive). The GI50 in the assay with LOX IMVI is 1.48 µM (inactive); in the assay on MOLT-4, 2.05 µM (inactive); with NCI-H226, 13.6 µM (inactive); with NCI-H23 it was 2.52 µM (inactive); with NCI-H522, 1.43 µM (inactive); in the assay with NCI/ADR-RES it was 2.65 µM (inactive). In addition, the GI50 in the assay on OVCAR-4 was 1.75 µM (inactive); in the assay with RXF 393 it was 1.9 µM (inactive); in the assay on SN12C, 2.85 µM (inactive); with SNB-19 it was 3.73 µM (inactive); with U-251 it was 1.96 µM (inactive); with UACC-62, 2.13 µM (inactive).
Take `NCc1ccc(O)c(O)c1`: the GI50 with 786-0 is > 100 µM (inactive); in the assay on A498, > 100 µM (inactive); in the assay on HCC 2998, > 100 µM (inactive); in the assay on HL-60, 12.5 µM (inactive); with HT-29, > 100 µM (inactive); in the assay with IGROV-1, 60.1 µM (inactive). The GI50 was > 100 µM (inactive) in the assay on LOX IMVI; 27.1 µM (inactive) in the assay with MOLT-4; > 100 µM (inactive) with NCI-H226; > 100 µM (inactive) in the assay on NCI-H23; > 100 µM (inactive) in the assay with NCI-H460; > 100 µM (inactive) with NCI/ADR-RES. Further, the GI50 with OVCAR-4, with RXF 393, in the assay on SN12C, with SNB-19, with U-251 and with UACC-62 was > 100 µM (inactive) throughout.
On to `O=C1CC(c2ccc[nH]2)=NN1c1ccccc1`, for which the GI50 in the assay with 786-0 was > 100 µM (inactive); with A498, > 100 µM (inactive); in the assay on HL-60, > 100 µM (inactive); in the assay on HT-29 it was > 100 µM (inactive); in the assay on LOX IMVI, > 100 µM (inactive); in the assay with MOLT-4, 27.8 µM (inactive). The GI50 in the assay on NCI-H226, in the assay on NCI-H23, in the assay with NCI-H460, with NCI-H522, in the assay with NCI/ADR-RES and in the assay with OVCAR-4 was > 100 µM (inactive) each time. The GI50 with RXF 393, in the assay with SN12C, in the assay with SNB-19, in the assay with U-251 and with UACC-62 was > 100 µM (inactive) each time.
On to `Cc1cccc2c(NCCN(C)C)c3cccc(C(=O)NCCN(C)C)c3nc12`, for which the GI50 in the assay with 786-0 was 0.0783 µM (active); in the assay with A498, 0.918 µM (active); in the assay on HCC 2998, < 0.0455 µM (active); in the assay on HL-60, 0.24 µM (active); with HT-29, 0.0594 µM (active); in the assay with IGROV-1, 0.171 µM (active). Moreover, the GI50 with MOLT-4 was 0.0262 µM (active); with NCI-H226, 0.728 µM (active); in the assay on NCI-H23, 0.372 µM (active); with NCI-H460, < 0.0361 µM (active); in the assay with NCI-H522, < 0.0486 µM (active); with NCI/ADR-RES it was 0.446 µM (active). The GI50 was 0.207 µM (active) with OVCAR-4; 0.475 µM (active) in the assay on RXF 393; 0.0603 µM (active) in the assay on SN12C; 0.413 µM (active) in the assay with SNB-19; 0.139 µM (active) with U-251; 0.135 µM (active) with UACC-62.
Regarding `Fc1cc(C2=Nn3c(CNc4ccc(Cl)cc4)nnc3S/C2=C\c2ccc(-c3ccc(Cl)cc3)o2)c(Cl)cc1Cl`, the GI50 in the assay on 786-0 is 32.3 µM (inactive); in the assay on A498 it was 17.5 µM (inactive); in the assay with HCC 2998, 57.8 µM (inactive); in the assay with HL-60, > 100 µM (inactive); in the assay with HT-29, 32.8 µM (inactive); in the assay with IGROV-1, 17.7 µM (inactive). The GI50 was 22.8 µM (inactive) with LOX IMVI; 3.33 µM (inactive) in the assay with MOLT-4; 26.5 µM (inactive) with NCI-H226; 81.8 µM (inactive) in the assay on NCI-H23; 65.3 µM (inactive) in the assay with NCI-H460; 38 µM (inactive) in the assay with NCI-H522. For the same compound, the GI50 in the assay with NCI/ADR-RES was 6.53 µM (inactive); in the assay on RXF 393, 13.4 µM (inactive); in the assay on SN12C, 33.3 µM (inactive); with SNB-19 it was 44 µM (inactive); in the assay on U-251, 18.6 µM (inactive); in the assay on UACC-62 it was 13.6 µM (inactive).
`CC(=O)O[C@@H]1[C@@H](C)[C@]2(CC(c3ccoc3)OC2O)C2CCC3O[C@]3(C)[C@]2(C)[C@@H]1OC(C)=O` (stereo partly specified): the GI50 with 786-0 is 19.2 µM (inactive); in the assay on A498 it was 95.1 µM (inactive); in the assay on HL-60 it was 18 µM (inactive); in the assay with HT-29, 32 µM (inactive); in the assay with IGROV-1, 41.8 µM (inactive); in the assay on LOX IMVI, 22.3 µM (inactive). Besides, the GI50 was 19.1 µM (inactive) in the assay on MOLT-4; 27.7 µM (inactive) with NCI-H226; 37.4 µM (inactive) in the assay on NCI-H23; 29.7 µM (inactive) with NCI-H460; 27.9 µM (inactive) in the assay with NCI-H522; 40.2 µM (inactive) with NCI/ADR-RES. Besides, the GI50 in the assay on OVCAR-4 was 12.5 µM (inactive); with RXF 393, 35.1 µM (inactive); in the assay with SN12C it was 39 µM (inactive); with SNB-19, > 100 µM (inactive); with U-251, 83 µM (inactive); in the assay with UACC-62, 20.4 µM (inactive).
Take `CCCCOC(=O)C1CC[C@H]2[C@@H]3CCc4cc(OC(=O)c5cccc6c(=O)c7ccccc7[nH]c56)ccc4[C@H]3CC[C@]12C` (stereo partly specified): the GI50 is 9.89 µM (inactive) with 786-0; 8.83 µM (inactive) in the assay with A498; 8.87 µM (inactive) in the assay with HCC 2998; 5.86 µM (inactive) in the assay on HL-60; 10.4 µM (inactive) in the assay with HT-29; 8.13 µM (inactive) in the assay with IGROV-1. The GI50 in the assay on LOX IMVI is 8.83 µM (inactive); with MOLT-4, 8.81 µM (inactive); with NCI-H226, 11.4 µM (inactive); with NCI-H23, 8.95 µM (inactive); with NCI-H522, 9.64 µM (inactive); in the assay with NCI/ADR-RES, 11 µM (inactive). Besides, the GI50 in the assay on OVCAR-4 is 7.78 µM (inactive); in the assay on RXF 393, 9.48 µM (inactive); in the assay with SN12C, 8.45 µM (inactive); with U-251 it was 9.79 µM (inactive); in the assay with UACC-62, 6.84 µM (inactive).
As to `O=C1Nc2c(Cl)cc(Cl)cc2/C1=N/N=C/c1ccco1`, the GI50 in the assay on 786-0 is 38.8 µM (inactive); in the assay with A498, 21.2 µM (inactive); in the assay with HCC 2998, 37.3 µM (inactive); in the assay with HL-60, 29.7 µM (inactive); in the assay on HT-29 it was 28.8 µM (inactive); in the assay on IGROV-1, 27.5 µM (inactive). The GI50 is 17.8 µM (inactive) in the assay on LOX IMVI; 27.2 µM (inactive) in the assay with MOLT-4; 23 µM (inactive) in the assay on NCI-H226; 25 µM (inactive) in the assay with NCI-H23; 28.2 µM (inactive) with NCI-H460; 21.4 µM (inactive) in the assay on NCI/ADR-RES. In addition, the GI50 is 49.3 µM (inactive) in the assay on OVCAR-4; 32.1 µM (inactive) with RXF 393; 26.6 µM (inactive) in the assay on SN12C; 80.7 µM (inactive) in the assay with SNB-19; 27.7 µM (inactive) in the assay on U-251; 21.5 µM (inactive) with UACC-62.
Turning to `COC1(c2ccc(Cl)cc2)SC=C(C)n2c1noc2=O` (stereo unspecified), the GI50 with 786-0 was > 100 µM (inactive); in the assay with A498, > 100 µM (inactive); in the assay on HCC 2998, > 100 µM (inactive); in the assay with HL-60, > 100 µM (inactive); with HT-29, 33.8 µM (inactive); with IGROV-1, > 100 µM (inactive). Moreover, the GI50 was > 100 µM (inactive) in the assay on LOX IMVI; > 100 µM (inactive) with MOLT-4; > 100 µM (inactive) in the assay with NCI-H23; > 100 µM (inactive) in the assay on NCI-H460; 89.5 µM (inactive) in the assay on NCI-H522; 10.5 µM (inactive) in the assay with NCI/ADR-RES. The GI50 in the assay with OVCAR-4 is 63.8 µM (inactive); in the assay on RXF 393, > 100 µM (inactive); in the assay on SN12C it was > 100 µM (inactive); in the assay on SNB-19, > 100 µM (inactive); with U-251 it was > 100 µM (inactive); in the assay with UACC-62, > 100 µM (inactive).
For `CN(C)Cc1cc(C(=O)/C=C/c2c(F)cccc2Cl)cc(CN(C)C)c1O`, the GI50 is 5.61 µM (inactive) with 786-0; 6.5 µM (inactive) in the assay with A498; 13.1 µM (inactive) in the assay on HCC 2998; 3.02 µM (inactive) with HL-60; 10.9 µM (inactive) in the assay with HT-29; 5.47 µM (inactive) in the assay with IGROV-1. Further, the GI50 in the assay on LOX IMVI is 4.83 µM (inactive); in the assay on MOLT-4, 11.1 µM (inactive); in the assay on NCI-H226 it was 13.5 µM (inactive); with NCI-H23, 14.9 µM (inactive); in the assay with NCI-H460 it was 2.37 µM (inactive); in the assay on NCI/ADR-RES, 17 µM (inactive). Also, the GI50 with OVCAR-4 is 15.2 µM (inactive); with RXF 393, 2.69 µM (inactive); in the assay with SN12C, 4.57 µM (inactive); with SNB-19, 18.1 µM (inactive); with U-251 it was 10.8 µM (inactive); in the assay with UACC-62, 12.3 µM (inactive).
